Patent US11739074B2, “Ras inhibitors” (Revolution Medicines, Inc., priority 2019, dated 2023)
Where two headings read alike, the source gives them in different places.

Columns and labels:
KRAS Q61H = KRAS Q61H (Homo sapiens, UniProt P01116+P62937, Q61H); experiment: Ras-Raf disruption/FRET/MOA assay, KRAS Q61H; type: biochemical
Description: (§1) Disruption of B-Raf Ras-Binding Domain (BRAF^RBD) Interaction with K-Ras by Compounds of the Invention (Also Called a FRET Assay or an MOA Assay)
(§2) Note—The following protocol describes a procedure for monitoring disruption of K-Ras G12C (GMP-PNP) binding to BRAF^RBD by a compound of the invention. This protocol may also be executed substituting other Ras proteins or nucleotides, such as K-Ras G12D and K-Ras G13D.
(§3) The purpose of this biochemical assay was to measure the ability of test compounds to facilitate ternary complex formation between a nucleotide-loaded K-Ras isoform and Cyclophilin A; the resulting ternary complex disrupts binding to a BRAF^RBD construct, inhibiting K-Ras signaling through a RAF effector.
(§4) In assay buffer containing 25 mM HEPES pH 7.3, 0.002% Tween20, 0.1% BSA, 100 mM NaCl and 5 mM MgCl2, tagless Cyclophilin A, His6-K-Ras-GMPPNP, and GST-BRAF^RBD were combined in a 384-well assay plate at final concentrations of 25 μM, 12.5 nM, and 50 nM, respectively. Compound was present in plate wells as a 10-point 3-fold dilution series starting at a final concentration of 30 μM. After incubation at 25° C. for 3 hours, a mixture of anti-His Eu-W1024 and anti-GST allophycocyanin was then added to assay sample wells at final concentrations of 10 nM and 50 nM, respectively, and the reaction incubated for an additional 1.5 hours. […] Compounds that facilitate disruption of a K-Ras:RAF complex were identified as those eliciting a decrease in the TR-FRET ratio relative to DMSO control wells.

NCI-H358 (K-Ras G12C) = experiment: CellTiter-Glo cell viability assay, H358; type: cell-based; settings: Homo sapiens, NCI-H358, 120 h
Outline: (§5)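 Luminescence from CellTiter-Glo serves as the viability read-out after cells are treated with compound for 5 days. Each well's signal is divided by the DMSO average and multiplied by 100, and curves are fitted by four-parameter logistic regression.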

NRAS Q61K = biological target: T1, NRAS Q61K (Homo sapiens, UniProt P01111+P62937, Q61K); experiment: Ras-Raf disruption/FRET/MOA assay, NRAS Q61K; type: biochemical
T1 construct: His6
T1 sequence (P01111 whole entry Q61K): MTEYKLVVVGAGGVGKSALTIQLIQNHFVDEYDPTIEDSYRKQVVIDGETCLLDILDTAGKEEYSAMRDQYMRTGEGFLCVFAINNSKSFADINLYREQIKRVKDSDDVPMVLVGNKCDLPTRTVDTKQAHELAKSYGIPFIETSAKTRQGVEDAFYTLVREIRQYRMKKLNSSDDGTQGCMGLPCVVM
T1 sequence (P62937 whole entry): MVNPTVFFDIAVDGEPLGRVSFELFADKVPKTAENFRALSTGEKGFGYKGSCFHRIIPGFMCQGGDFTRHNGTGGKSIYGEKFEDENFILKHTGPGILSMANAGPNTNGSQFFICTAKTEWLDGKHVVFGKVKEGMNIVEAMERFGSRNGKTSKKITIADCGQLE
Description: as §1, §2, §3, §4

KRAS G12S = KRAS G12S (Homo sapiens, UniProt P01116+P62937, G12S); experiment: Ras-Raf disruption/FRET/MOA assay, KRAS G12S; type: biochemical
Chain of KRAS G12S (P01116 1-169 isoform P01116-2 G12S limits assumed): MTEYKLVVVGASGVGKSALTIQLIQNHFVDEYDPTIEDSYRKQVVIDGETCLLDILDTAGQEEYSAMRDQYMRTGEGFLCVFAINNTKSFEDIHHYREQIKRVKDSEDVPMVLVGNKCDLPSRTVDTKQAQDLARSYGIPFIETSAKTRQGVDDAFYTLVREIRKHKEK
Chain of KRAS G12S (P62937 whole entry): as the sequence (P62937 whole entry) above
Outline: (§6)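 His6-K-Ras-GMPPNP (12.5 nM) was incubated with GST-BRAF RBD (50 nM), tagless cyclophilin A (25 µM) and compound (10-point 3-fold series from 30 µM) in HEPES pH 7.3 buffer for 3 h at 25 °C. Anti-His Eu/anti-GST APC were then added for 1.5 h; disruption was read as a drop in TR-FRET ratio versus DMSO.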

AsPC-1 (K-Ras G12D) [1] = experiment: CellTiter-Glo cell viability assay, AsPC-1; type: cell-based; settings: Homo sapiens, ASPC1, 120 h
Outline: as §5

KRAS G13D = KRAS G13D (Homo sapiens, UniProt P01116+P62937, G13D); experiment: Ras-Raf disruption/FRET/MOA assay, KRAS G13D; type: biochemical
Chain of KRAS G13D (P01116 1-169 isoform P01116-2 G13D limits assumed): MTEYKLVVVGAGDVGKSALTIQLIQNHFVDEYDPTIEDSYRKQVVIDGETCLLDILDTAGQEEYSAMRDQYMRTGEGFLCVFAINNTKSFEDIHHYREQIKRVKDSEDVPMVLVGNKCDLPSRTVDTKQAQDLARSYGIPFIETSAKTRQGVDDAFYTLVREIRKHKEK
Chain of KRAS G13D (P62937 whole entry): as the sequence (P62937 whole entry) above
Outline: as §6

KRAS WT = KRAS WT (Homo sapiens, UniProt P01116+P62937); experiment: Ras-Raf disruption/FRET/MOA assay, KRAS WT; type: biochemical
Chain of KRAS WT (P01116 1-169 isoform P01116-2 limits assumed): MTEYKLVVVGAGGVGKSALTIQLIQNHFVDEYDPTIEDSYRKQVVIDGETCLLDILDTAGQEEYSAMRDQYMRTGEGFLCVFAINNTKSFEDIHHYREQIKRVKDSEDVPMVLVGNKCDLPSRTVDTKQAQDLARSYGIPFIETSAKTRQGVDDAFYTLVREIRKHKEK
Chain of KRAS WT (P62937 whole entry): as the sequence (P62937 whole entry) above
Outline: as §6

KRAS G12V = KRAS G12V (Homo sapiens, UniProt P01116+P62937, G12V); experiment: Ras-Raf disruption/FRET/MOA assay, KRAS G12V; type: biochemical
Chain of KRAS G12V (P01116 1-169 isoform P01116-2 G12V limits assumed): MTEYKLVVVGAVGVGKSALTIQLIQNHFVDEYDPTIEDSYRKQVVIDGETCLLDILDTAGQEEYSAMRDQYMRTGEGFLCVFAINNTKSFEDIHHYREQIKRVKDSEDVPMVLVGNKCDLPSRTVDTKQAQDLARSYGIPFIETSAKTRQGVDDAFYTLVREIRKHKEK
Chain of KRAS G12V (P62937 whole entry): as the sequence (P62937 whole entry) above
Outline: as §6

AsPC-1 (K-Ras G12D) [2] = experiment: Potency assay: pERK in AsPC-1 cells; type: cell-based; settings: Homo sapiens
NRAS G12C = biological target: T2, NRAS G12C (Homo sapiens, UniProt P01111+P62937, G12C); experiment: Ras-Raf disruption/FRET/MOA assay, NRAS G12C; type: biochemical
T2 construct: His6
T2 sequence (P01111 whole entry G12C): as the sequence (P01111 whole entry Q61K) above, with G12C, K61Q counted along it
T2 sequence (P62937 whole entry): as the sequence (P62937 whole entry) above
Outline: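 Disruption of Ras:RAF binding was read as a drop in TR-FRET ratio versus DMSO controls. The buffer was 25 mM HEPES pH 7.3, 0.002% Tween20, 0.1% BSA, 100 mM NaCl and 5 mM MgCl2. Compounds were tested as a 10-point 3-fold dilution series from 30 μM. Detection used 10 nM anti-His Eu-W1024 and 50 nM anti-GST allophycocyanin.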

NRAS WT = biological target: T3, NRAS WT (Homo sapiens, UniProt P01111+P62937); experiment: Ras-Raf disruption/FRET/MOA assay, NRAS WT; type: biochemical
T3 construct: His6
T3 sequence (P01111 whole entry): as the sequence (P01111 whole entry Q61K) above, with K61Q counted along it
T3 sequence (P62937 whole entry): as the sequence (P62937 whole entry) above
Description: as §1, §2, §3, §4

NRAS Q61R = biological target: T4, NRAS Q61R (Homo sapiens, UniProt P01111+P62937, Q61R); experiment: Ras-Raf disruption/FRET/MOA assay, NRAS Q61R; type: biochemical
T4 construct: His6
T4 sequence (P01111 whole entry Q61R): as the sequence (P01111 whole entry Q61K) above, with K61R counted along it
T4 sequence (P62937 whole entry): as the sequence (P62937 whole entry) above
Description: as §1, §2, §3, §4

KRAS G12D = KRAS G12D (Homo sapiens, UniProt P01116+P62937, G12D); experiment: Ras-Raf disruption/FRET/MOA assay, KRAS G12D; type: biochemical
Chain of KRAS G12D (P01116 1-169 isoform P01116-2 G12D limits assumed): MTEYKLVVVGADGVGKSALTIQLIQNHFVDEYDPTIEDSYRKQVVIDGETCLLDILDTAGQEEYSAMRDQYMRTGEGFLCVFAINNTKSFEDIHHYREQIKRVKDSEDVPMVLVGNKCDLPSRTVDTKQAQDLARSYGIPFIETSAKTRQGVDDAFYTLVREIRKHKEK
Chain of KRAS G12D (P62937 whole entry): as the sequence (P62937 whole entry) above
Outline: as §6

KRAS G13C = KRAS G13C (Homo sapiens, UniProt P01116+P62937, G13C); experiment: Ras-Raf disruption/FRET/MOA assay, KRAS G13C; type: biochemical
Chain of KRAS G13C (P01116 1-169 isoform P01116-2 G13C limits assumed): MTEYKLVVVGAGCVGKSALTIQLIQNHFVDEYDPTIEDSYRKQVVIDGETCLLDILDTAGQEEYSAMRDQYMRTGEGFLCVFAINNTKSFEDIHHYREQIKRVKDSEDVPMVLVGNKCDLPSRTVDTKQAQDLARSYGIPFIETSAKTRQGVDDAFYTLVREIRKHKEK
Chain of KRAS G13C (P62937 whole entry): as the sequence (P62937 whole entry) above
Outline: as §6

KRAS G12C = KRAS G12C (Homo sapiens, UniProt P01116+P62937, G12C); experiment: Ras-Raf disruption/FRET/MOA assay, KRAS G12C; type: biochemical
Chain of KRAS G12C (P01116 1-169 isoform P01116-2 G12C limits assumed): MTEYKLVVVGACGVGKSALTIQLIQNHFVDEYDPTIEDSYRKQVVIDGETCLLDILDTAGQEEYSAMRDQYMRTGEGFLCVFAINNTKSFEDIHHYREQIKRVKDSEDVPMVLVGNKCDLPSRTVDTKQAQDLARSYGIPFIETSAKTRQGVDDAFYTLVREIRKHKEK
Chain of KRAS G12C (P62937 whole entry): as the sequence (P62937 whole entry) above
Outline: as §6

[3] = KRAS Q61H, read-out: KRAS Q61H FRET data IC50
[4] = NCI-H358, K-Ras G12C, 5-day treatment, read-out: H358 Cell Viability IC50
[5] = NRAS Q61K, read-out: NRAS Q61K FRET data IC50
[6] = disruption of BRAF RBD binding, with Cyclophilin A, read-out: KRAS G12S FRET IC50
[7] = AsPC-1, K-Ras G12D, 5-day treatment, read-out: AsPC-1 Cell Viability IC50
[8] = disruption of BRAF RBD binding, with Cyclophilin A, read-out: KRAS G13D FRET IC50
[9] = disruption of BRAF RBD binding, with Cyclophilin A, read-out: KRAS WT FRET IC50
[10] = disruption of BRAF RBD binding, with Cyclophilin A, read-out: KRAS G12V FRET IC50
[11] = ASPC1, AsPC-1 cells, K-Ras G12D, read-out: pERK EC50 (AsPC-1 KRAS G12D)
[12] = NRAS G12C, read-out: NRAS G12C FRET data IC50
[13] = NRAS WT, read-out: NRAS WT FRET data IC50
[14] = NRAS Q61R, read-out: NRAS Q61R FRET data IC50
[15] = disruption of BRAF RBD binding, with Cyclophilin A, read-out: KRAS G12D FRET IC50
[16] = disruption of BRAF RBD binding, with Cyclophilin A, read-out: KRAS G13C FRET IC50
[17] = disruption of BRAF RBD binding, with Cyclophilin A, read-out: KRAS G12C FRET IC50

Chain of KRAS Q61H (P01116 1-169 isoform P01116-2 Q61H limits assumed): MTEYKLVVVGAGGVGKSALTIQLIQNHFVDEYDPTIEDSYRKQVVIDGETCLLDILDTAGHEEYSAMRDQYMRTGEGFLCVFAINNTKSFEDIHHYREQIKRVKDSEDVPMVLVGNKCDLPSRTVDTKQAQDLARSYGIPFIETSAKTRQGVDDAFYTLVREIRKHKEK
Chain of KRAS Q61H (P62937 whole entry, the tested form may be a part): as the sequence (P62937 whole entry) above

CCn1c(-c2cccnc2[C@H](C)OC)c2c3cc(ccc31)-c1csc(n1)C[C@H](NC(=O)[C@H](C(C)C)N(C)C(=O)N1CCC[C@@H](N(C)C(=O)[C@H]3CN3)C1)C(=O)N1CCC[C@H](N1)C(=O)OCC(C)(C)C2 (atropisomer, axis not shown) [Compound 289]
IC50 (KRAS Q61H; [3]): 10 to 100 nM | IC50 (NCI-H358 (K-Ras G12C); [4]): 10 to 100 nM | IC50 (NRAS Q61K; [5]): 10 to 100 nM | IC50 (KRAS G12S; [6]): 10 to 100 nM | IC50 (AsPC-1 (K-Ras G12D) [1]; [7]): 100 to 1000 nM | IC50 (KRAS G13D; [8]): 100 to 1000 nM | IC50 (KRAS WT; [9]): 10 to 100 nM | IC50 (KRAS G12V; [10]): 100 to 1000 nM | EC50 (AsPC-1 (K-Ras G12D) [2]; [11]): < 5000 nM | IC50 (NRAS G12C; [12]): 10 to 100 nM | IC50 (NRAS WT; [13]): 10 to 100 nM | IC50 (NRAS Q61R; [14]): 10 to 100 nM | IC50 (KRAS G12D; [15]): 100 to 1000 nM | IC50 (KRAS G13C; [16]): 100 to 1000 nM | IC50 (KRAS G12C; [17]): 10 to 100 nM

CCn1c(-c2cccnc2[C@H](C)OC)c2c3cc(ccc31)-c1csc(n1)C[C@H](NC(=O)[C@H](C(C)C)N(C)C(=O)N1CCC[C@H](N(C)C(=O)[C@H]3CN3)C1)C(=O)N1CCC[C@H](N1)C(=O)OCC(C)(C)C2 (atropisomer, axis not shown) [Compound 290]
IC50 (KRAS Q61H; [3]): 100 to 1000 nM | IC50 (NCI-H358 (K-Ras G12C); [4]): 10 to 100 nM | IC50 (NRAS Q61K; [5]): 100 to 1000 nM | IC50 (KRAS G12S; [6]): 100 to 1000 nM | IC50 (AsPC-1 (K-Ras G12D) [1]; [7]): 1000 to 10000 nM | IC50 (KRAS G13D; [8]): 1000 to 10000 nM | IC50 (KRAS WT; [9]): 100 to 1000 nM | IC50 (KRAS G12V; [10]): 100 to 1000 nM | EC50 (AsPC-1 (K-Ras G12D) [2]; [11]): < 5000 nM | IC50 (NRAS G12C; [12]): 100 to 1000 nM | IC50 (NRAS WT; [13]): 100 to 1000 nM | IC50 (NRAS Q61R; [14]): 100 to 1000 nM | IC50 (KRAS G12D; [15]): 1000 to 10000 nM | IC50 (KRAS G13C; [16]): 100 to 1000 nM | IC50 (KRAS G12C; [17]): 100 to 1000 nM

CCn1c(-c2cccnc2[C@H](C)OC)c2c3cc(ccc31)-c1csc(n1)C[C@H](NC(=O)[C@H](C(C)C)N(C)C(=O)N1CCC[C@@H](N(C)C(=O)[C@@H]3CN3)C1)C(=O)N1CCC[C@H](N1)C(=O)OCC(C)(C)C2 (atropisomer, axis not shown) [Compound 291]
IC50 (KRAS Q61H; [3]): 10 to 100 nM | IC50 (NCI-H358 (K-Ras G12C); [4]): 10 to 100 nM | IC50 (NRAS Q61K; [5]): 10 to 100 nM | IC50 (KRAS G12S; [6]): 100 to 1000 nM | IC50 (AsPC-1 (K-Ras G12D) [1]; [7]): 100 to 1000 nM | IC50 (KRAS G13D; [8]): 100 to 1000 nM | IC50 (KRAS WT; [9]): 10 to 100 nM | IC50 (KRAS G12V; [10]): 100 to 1000 nM | EC50 (AsPC-1 (K-Ras G12D) [2]; [11]): < 5000 nM | IC50 (NRAS G12C; [12]): 10 to 100 nM | IC50 (NRAS WT; [13]): 10 to 100 nM | IC50 (NRAS Q61R; [14]): 100 to 1000 nM | IC50 (KRAS G12D; [15]): 100 to 1000 nM | IC50 (KRAS G13C; [16]): 100 to 1000 nM | IC50 (KRAS G12C; [17]): 10 to 100 nM

CCC(C)N(C)C(=O)c1cncc(-c2c3c4cc(ccc4n2CC)-c2cc(O)cc(c2)C[C@H](NC(=O)[C@H](C(C)C)N(C)C(=O)CN(C)C(=O)[C@H]2CN2)C(=O)N2CCC[C@H](N2)C(=O)OCC(C)(C)C3)c1 (stereo partly drawn) [Compound 144]
IC50 (KRAS Q61H): 10 to 100 nM | IC50 (NCI-H358 (K-Ras G12C); read-out: H358 Cell Viability IC50, NCI-H358, K-Ras G12C, 5-day treatment): 10 to 100 nM | IC50 (NRAS Q61K): 1000 to 10000 nM | IC50 (KRAS G12S): 100 to 1000 nM | IC50 (AsPC-1 (K-Ras G12D) [1]; read-out: AsPC-1 Cell Viability IC50, AsPC-1, K-Ras G12D, 5-day treatment): 100 to 1000 nM | IC50 (KRAS G13D): 100 to 1000 nM | IC50 (KRAS WT): 100 to 1000 nM | IC50 (KRAS G12V): 100 to 1000 nM | EC50 (AsPC-1 (K-Ras G12D) [2]; ASPC1, read-out: pERK EC50 (AsPC-1 KRAS G12D)): < 5000 nM | IC50 (NRAS G12C; NRAS G12C FRET data IC50, NRAS G12C): 10 to 100 nM | IC50 (NRAS WT): 100 to 1000 nM | IC50 (NRAS Q61R): 1000 to 10000 nM | IC50 (KRAS G12D): 100 to 1000 nM | IC50 (KRAS G13C): 10 to 100 nM | IC50 (KRAS G12C): 10 to 100 nM
